Source: paper PMC11129182, “Development of Inhibitors, Probes, and PROTAC Provides a Complete Toolbox to Study PARK7 in the Living Cell” (Journal of Medicinal Chemistry, 2024)
Like-named read-outs stand apart in the source and are kept apart here. Residues, ends and D or L forms follow the SMILES beside them. *: point of attachment. Cbz = O=C(OCc1ccccc1)*

Assays:
PARK7 [1] = target: T1, PARK7 (Homo sapiens, UniProt Q99497); assay: Hit validation and pure-compound testing in the PARK7 FP assay with JYQ-107; format: biochemical; conditions: for inhibition at 0.25 µM: read-out: % Inhibition 0.25 µM; for potency in FP assay compared to JYQ-88: 0.25 and 1 μM
T1 sequence (Q99497 1-189): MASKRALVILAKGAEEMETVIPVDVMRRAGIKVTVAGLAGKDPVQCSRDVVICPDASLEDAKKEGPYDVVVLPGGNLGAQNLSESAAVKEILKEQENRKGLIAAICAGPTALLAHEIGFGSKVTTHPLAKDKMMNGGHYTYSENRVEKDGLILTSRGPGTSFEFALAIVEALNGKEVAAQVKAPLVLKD

PARK7 [2] = target: T1, PARK7; assay: Cell-based competition assay with probe JYQ-92 in HEK293T cells; conditions: live HEK293T cells, 5 μM, 24 h
Experimental: Samples were resolved by SDS-PAGE and analyzed by fluorescence scanning and Western blotting (Figure 2B). The target engagement of cellular PARK7 is reflected by the disappearance of the PARK7 labeling band in the fluorescence gel scan and by the loss of the shifted probe-labeled PARK7 band in the Western blot.
HEK293T cells were treated with the indicated concentrations of indicated inhibitors for indicated incubation time.
Figure S1. Assessment of the cell permeability of JYQ -88. (A) Structure of JYQ-92.
(B) Target engagement of JYQ-88 in HEK293T cells. HEK293T cells were incubated […]
with PARK7 probe JYQ-92 fo r 1 h at 37 °C. The reactions were stopped by the addition of NuPAGE™ LDS sample buffer (4x). Samples were resolved by SDS -PAGE using […]
fluorescence scanning on a Typhoon FLA 9500 (GE Healthcare Life Sciences) using […]
The disappearance of the JYQ-92-labeled band in […]
of JYQ-88 is used as a measurement of cellular PARK7 engagement with JYQ -88.
(1 picture or pasted object on this page, not shown here)

PARK7 [3] = target: T1, PARK7; assay: High-throughput screen of the crude compound library, PARK7 fluorescence polarization (FP) assay with FP reagent JYQ-107; format: biochemical; conditions: for inhibition at 1.25 µM: crude compound library, read-out: HTS FP assay %Inhibition (1.25 µM)
PARK7 [4] = target: T1, PARK7; assay: Activity evaluation of PROTACs in cells (PARK7 degradation, immunoblot); conditions: A549 cells; for effect of pretreatment on JYQ-194-induced PARK7 degradation: pretreatment 4 h (5 μM pomalidomide, 5 μM JYQ-173 or 10 μM MG-132), then JYQ-194 5 μM 8 h
Experimental: A549 cells were seeded into 6-well plates. The next day after seeding, cells were incubated with the indicated concentrations of indicated PROTACs for 8 h. The cells were then washed with PBS and collected. The collected cell pellets were lysed with Tris-triton buffer as described above. The prepared cell lysate of each sample (10 μL) was added 5 μL 3× LDS + 5% β-mercaptoethanol, and boiled for 10 min.

PARK7 [5] = target: T1, PARK7; assay: biochemical; design: Fluorescence polarization competition: residual PARK7 labelling by JYQ-107 probe after 1 h preincubation, % inhibition; conditions: sheet Validation pure compounds
Experimental: The 15 pure compounds from the two different approaches (5 compounds from structure modification and 10 compounds from HTS) were assessed for their potency to inhibit PARK7 at 0.25 and 1 μM final concentrations using the FP assay (Figure 2A). […] Fifty four compounds showing inhibition above 90% were picked and checked at three different concentrations. Using a Labcyte Echo550 acoustic dispenser, 20, 10, and 5 nL of 1 mM compound stock solutions were transferred from the source plates into an empty 384-well plate to obtain 1, 0.5, 0.25 μM final concentrations. […] The relative loss of FP signal compared with reference controls (5 mM NEM, 100% inhibition, and DMSO, 0% inhibition) was used to calculate the remaining enzyme activity. The inhibition percentage of these 54 compounds was plotted as heatmaps using Graphpad Prism 9.0.1 software. […] Stock solutions of 0.26 μM PARK7 and 80 nM JYQ-107 were prepared. Using a Labcyte Echo550 acoustic dispenser, 10 nL of 1 mM DMSO stock solutions of the library compounds was transferred from the source plates into the empty 1536-well screening plates to obtain a 1.25 μM final compound concentration. Next, PARK7 (6 μL, final concentration 0.2 μM) was dispensed using a Biotek MultiflowFX [compound left out] dispenser and incubated for 2 h, followed by dispensing the probe JYQ-107 (2 μL, final concentration 20 nM). […] The percentage inhibition of each compound was calculated from the FP values, normalized to the positive (5 mM N-ethylmaleimide, 100% inhibition) and negative (DMSO, 0% inhibition) controls.

[6] = crude compounds, 0.5 µM, read-out: % Inhibition 0.5 µM

Row | SMILES | inhibition at 1.25 µM (PARK7 [3]) | inhibition at 0.25 µM (PARK7 [1]; crude compounds, 0.25 µM) | inhibition at 0.5 µM (PARK7 [1]; [6]) | inhibition at 1 µM (PARK7 [1]; crude compounds) | other results
1 | N#CN1CC[C@@H](C(=O)Nc2nc3c(s2)CN(C(=O)CN2CCOCC2)CC3)C1 [Compound 1, (R)-1-Cyano-N-(5-(2-morpholinoacetyl)-4,5,6,7-tetrahydrothiazolo[5,4-c]pyridin-2-yl)pyrrolidine-3-carboxamide] | – | – | – | – | inhibition at 0.25 µM (PARK7 [1]; pure compounds, 0.25 µM): 62.8%; inhibition at 1 µM (PARK7 [1]; pure compounds): 87.7%; potency in FP assay compared to JYQ-88 (PARK7 [1]; pure compounds): did not improve; cellular target engagement of PARK7 (PARK7 [2]): did not bind with PARK7 in cells
2 | CN1CCN(CC(=O)N2CCc3nc(NC(=O)[C@@H]4CCN(C#N)C4)sc3C2)CC1 [Compound 2, (R)-1-Cyano-N-(5-(2-(4-methylpiperazin-1-yl)acetyl)-4,5,6,7-tetrahydrothiazolo[5,4-c]pyridin-2-yl)pyrrolidine-3-carboxamide] | – | – | – | – | inhibition at 0.25 µM (PARK7 [1]; pure compounds, 0.25 µM): 53.7%; inhibition at 1 µM (PARK7 [1]; pure compounds): 83.7%; potency in FP assay compared to JYQ-88 (PARK7 [1]; pure compounds): did not improve; cellular target engagement of PARK7 (PARK7 [2]): did not bind with PARK7 in cells
3 | N#CN1CC[C@@H](C(=O)Nc2nc3c(s2)CN(C(=O)CN2CCNCC2)CC3)C1 [Compound 4, (R)-1-Cyano-N-(5-(2-(piperazin-1-yl)acetyl)-4,5,6,7-tetrahydrothiazolo[5,4-c]pyridin-2-yl)pyrrolidine-3-carboxamide] | – | – | – | – | inhibition at 0.25 µM (PARK7 [1]; pure compounds, 0.25 µM): 40.2%; inhibition at 1 µM (PARK7 [1]; pure compounds): 59.9%; potency in FP assay compared to JYQ-88 (PARK7 [1]; pure compounds): lowered; cellular target engagement of PARK7 (PARK7 [2]): did not bind with PARK7 in cells
4 | N#CN1CC[C@@H](C(=O)Nc2nc3c(s2)CN(C(=O)CC2CCNCC2)CC3)C1 [Compound 5, (R)-1-Cyano-N-(5-(2-(piperidin-4-yl)acetyl)-4,5,6,7-tetrahydrothiazolo[5,4-c]pyridin-2-yl)pyrrolidine-3-carboxamide] | – | – | – | – | inhibition at 0.25 µM (PARK7 [1]; pure compounds, 0.25 µM): 38.5%; inhibition at 1 µM (PARK7 [1]; pure compounds): 71%; potency in FP assay compared to JYQ-88 (PARK7 [1]; pure compounds): lowered; cellular target engagement of PARK7 (PARK7 [2]): did not bind with PARK7 in cells
5 | N#CN1CC[C@@H](C(=O)Nc2nc3c(s2)CN(C(=O)c2cnn(-c4ccccc4)n2)CC3)C1 [Compound 295] | 89.6% | 38.6% | 65.4% | 88% | –
6 | CN(CC1CC1)c1ccc(C(F)(F)F)cc1C(=O)N1CCc2nc(NC(=O)[C@@H]3CCN(C#N)C3)sc2C1 [Compound 304] | 93.7% | 50.5% | 73.9% | 93.7% | –
7 | N#CN1CC[C@@H](C(=O)Nc2nc3c(s2)CN(C(=O)c2coc(C#Cc4ccccc4)c2)CC3)C1 [Compound 311] | 90.8% | 18.8% | 50.2% | 83.4% | –
8 | N#CN1CC[C@@H](C(=O)Nc2nc3c(s2)CN(C(=O)c2cccc(Oc4ccc(Cl)cc4)n2)CC3)C1 [Compound 312] | 92.1% | 34.1% | 62.9% | 89.5% | –
9 | N#CN1CC[C@@H](C(=O)Nc2nc3c(s2)CN(C(=O)c2cccnc2Oc2ccccc2Br)CC3)C1 [Compound 313] | 94.5% | 63% | 81.5% | 94.7% | –
10 | N#CN1CC[C@@H](C(=O)Nc2nc3c(s2)CN(C(=O)c2cnn(-c4ccc(C(F)(F)F)cc4)c2)CC3)C1 [Compound 314] | 98.2% | 43.8% | 75.1% | 93% | –
11 | Cc1c[nH]c(=O)n1-c1cccc(C(=O)N2CCc3nc(NC(=O)[C@@H]4CCN(C#N)C4)sc3C2)c1 [Compound 315] | 90% | 44% | 66.5% | 91.2% | –
12 | N#CN1CC[C@@H](C(=O)Nc2nc3c(s2)CN(C(=O)CCn2nc(C(F)(F)F)cc2C2CC2)CC3)C1 [Compound 333] | 93.5% | 57.5% | 79.2% | 94.5% | –
13 | Cn1cc(-c2cc(C(=O)N3CCc4nc(NC(=O)[C@@H]5CCN(C#N)C5)sc4C3)n[nH]2)cn1 [Compound 337] | 89.6% | 51.5% | 72.7% | 92.5% | –
14 | N#CN1CC[C@@H](C(=O)Nc2nc3c(s2)CN(C(=O)c2cccnc2Oc2ccc(Cl)cc2Cl)CC3)C1 [Compound 345] | – | 63.1% | 85% | 95% | inhibition at 1.25 µM (PARK7 [3]; FP reagent JYQ-107): 92.1%
15 | N#CN1CC[C@@H](C(=O)Nc2nc3c(s2)CN(C(=O)c2ccc(=O)n(C4CC4)c2)CC3)C1 [Compound 369] | – | 60.5% | 81% | 94.1% | inhibition at 1.25 µM (PARK7 [3]; FP reagent JYQ-107): 89.2%
16 | N#CN1CC[C@@H](C(=O)Nc2nc3c(s2)CN(C(=O)c2cccc(-c4ncon4)c2)CC3)C1 [Compound 381] | – | 64.1% | 84.8% | 97.7% | inhibition at 1.25 µM (PARK7 [3]; FP reagent JYQ-107): 93.4%
17 | CC1CCCCN1S(=O)(=O)c1ccccc1C(=O)N1CCc2nc(NC(=O)[C@@H]3CCN(C#N)C3)sc2C1 (stereo partly shown) [Compound 386] | – | 57.7% | 79.9% | 95.9% | inhibition at 1.25 µM (PARK7 [3]; FP reagent JYQ-107): 94.5%
18 | N#CN1CC[C@@H](C(=O)Nc2nc3c(s2)CN(C(=O)c2cccc(S(=O)(=O)N4CCN(C(=O)Cn5cc(COCCOCCNc6cccc7c6C(=O)N(C6CCC(=O)NC6=O)C7=O)nn5)CC4)c2)CC3)C1 (stereo partly shown) [JYQ-187] | – | – | – | – | PARK7 degradation (PARK7 [4]; 8 h): No degradation of PARK7 was observed
19 | N#CN1CC[C@@H](C(=O)Nc2nc3c(s2)CN(C(=O)c2cccc(S(=O)(=O)N4CCN(C(=O)Cn5cc(COCCOCCOCCNc6cccc7c6C(=O)N(C6CCC(=O)NC6=O)C7=O)nn5)CC4)c2)CC3)C1 (stereo partly shown) [JYQ-188] | – | – | – | – | PARK7 degradation (PARK7 [4]; 8 h): No degradation of PARK7 was observed
20 | N#CN1CC[C@@H](C(=O)Nc2nc3c(s2)CN(C(=O)c2cc(-n4cc(COCCOCCOCCNc5cccc6c5C(=O)N(C5CCC(=O)NC5=O)C6=O)nn4)ccc2F)CC3)C1 (stereo partly shown) [JYQ-195] | – | – | – | – | concentration at which PARK7 degradation starts (PARK7 [4]; 0.1 to 5 μM, 8 h): 2 µM
21 | CC(C)C[C@@H](C=O)NC(=O)[C@H](CC(C)C)NC(=O)[C@H](CC(C)C)NC(=O)OCc1ccccc1 [MG-132, reference compound] (Cbz-Leu-Leu-Leu-aldehyde) | – | – | – | – | effect of pretreatment on JYQ-194-induced PARK7 degradation (PARK7 [4]): abolished
22 | N#CN1CC[C@@H](C(=O)Nc2nc3c(s2)CN(C(=O)c2cccc(O)c2)CC3)C1 [compound 3] | – | – | – | – | inhibition at 0.25 µM (PARK7 [5]): 58.4%; inhibition at 1 µM (PARK7 [5]): 90.1%
23 | N#CN1CC[C@@H](C(=O)Nc2nc3c(s2)CN(C(=O)c2cccc(S(=O)(=O)NCC4CCCO4)c2)CC3)C1 (stereo partly shown) [compound 55] | – | – | – | – | inhibition at 0.25 µM (PARK7 [5]): 64.7%; inhibition at 1 µM (PARK7 [5]): 93.5%
24 | N#CN1CC[C@@H](C(=O)Nc2nc3c(s2)CN(C(=O)c2cccc(S(=O)(=O)NCCc4ccc(S(N)(=O)=O)cc4)c2)CC3)C1 [compound 199] | – | – | – | – | inhibition at 0.25 µM (PARK7 [5]): 80.7%; inhibition at 1 µM (PARK7 [5]): 94.6%
25 | N#CN1CC[C@@H](C(=O)Nc2nc3c(s2)CNCC3)C1 [cyanimide amine precursor, (R)-1-cyano-N-(4,5,6,7-tetrahydrothiazolo[5,4-c]pyridin-2-yl)pyrrolidine-3-carboxamide] | – | – | – | – | inhibition at 1 µM (PARK7 [3]; read-out: % inhibition in HTS): ~40%; inhibition at 0.25 µM (PARK7 [1]): 3%; inhibition at 0.5 µM (PARK7 [1]; read-out: % inhibition 0.5 μM): 20%
26 | Nc1cccc2c1C(=O)N(C1CCC(=O)NC1=O)C2=O (stereo not shown) [pomalidomide, reference compound] | – | – | – | – | effect of pretreatment on JYQ-194-induced PARK7 degradation (PARK7 [4]): abolished
